# Results reported in PubChem BioAssay (NCI).
#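 Test compounds were applied to cells in 96-well plates for 48 hours at 5 doses. GI50 = concentration required for 50% inhibition of growth. TGI: total growth inhibition.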
# Tests used:
# Assay in all cases: inhibition of tumour cell growth, NCI panel, 48 h
# [1] = tested on: MOLT-4 leukemia
# [2] = tested on: SR leukemia
# [3] = tested on: HCT-116 colon
# [4] = tested on: BT-549 breast
# [5] = tested on: KM12 colon
# [6] = tested on: PC-3 prostate
# [7] = tested on: HCT-15 colon
# [8] = tested on: TK-10 renal
# [9] = tested on: SNB-19 CNS
# [10] = tested on: HOP-92 NSCLC
# [11] = tested on: OVCAR-8 ovarian
# [12] = tested on: T-47D breast
# [13] = tested on: NCI-H226 lung
# [14] = tested on: NCI-H23 lung
# [15] = tested on: MDA-MB-435
# [16] = tested on: M14 melanoma
# [17] = tested on: RPMI-8226 leukemia
# [18] = tested on: CCRF-CEM leukemia
# [19] = tested on: SW-620 colon
# [20] = tested on: NCI/ADR-RES ovarian
# [21] = tested on: HOP-62 NSCLC
# [22] = tested on: U251 CNS
# [23] = tested on: SK-OV-3 ovarian
# [24] = tested on: A549 NSCLC
# [25] = tested on: 786-0 renal
# [26] = tested on: K-562 leukemia
# [27] = tested on: OVCAR-4 ovarian
# [28] = tested on: ACHN renal
# [29] = tested on: HS 578T breast
smiles,measurement,setting,value
O=c1ccccc(-c2ccc(-c3ccco3)cc2)c1O,TGI,[1],51.5 µM
same,GI50,[2],0.581 µM
same,TGI,[2],19.8 µM
same,GI50,[3],0.582 µM
same,TGI,[3],15.8 µM
same,GI50,[4],1.65 µM
same,TGI,[4],28 µM
same,GI50,[5],0.743 µM
same,TGI,[5],17.5 µM
same,GI50,[6],1.46 µM
same,TGI,[6],31.8 µM
same,GI50,[7],0.373 µM
same,TGI,[7],41.2 µM
same,GI50,[8],0.819 µM
same,TGI,[8],82.9 µM
same,GI50,[9],1.04 µM
same,TGI,[9],22.9 µM
same,GI50,[10],2.05 µM
same,TGI,[10],39.8 µM
same,GI50,[11],0.507 µM
same,TGI,[11],29 µM
same,GI50,[12],1.56 µM
same,TGI,[12],80.3 µM
same,GI50,[13],2.31 µM
same,TGI,[13],23 µM
same,GI50,[14],1.22 µM
same,TGI,[14],15 µM
same,GI50,[15],1.85 µM
same,TGI,[15],> 100 µM
same,GI50,[16],0.665 µM
same,TGI,[16],6.11 µM
same,GI50,[17],0.756 µM
same,TGI,[17],> 100 µM
same,GI50,[18],0.505 µM
same,TGI,[18],> 100 µM
same,GI50,[19],0.438 µM
same,TGI,[19],29.1 µM
same,GI50,[20],0.388 µM
same,TGI,[20],4.65 µM
same,GI50,[21],0.694 µM
same,TGI,[21],12.9 µM
same,GI50,[22],0.87 µM
same,TGI,[22],12.7 µM
same,GI50,[23],1.22 µM
same,TGI,[23],24 µM
same,GI50,[24],1.39 µM
same,TGI,[24],47.5 µM
same,GI50,[25],0.834 µM
same,TGI,[25],14.7 µM
same,GI50,[26],0.603 µM
same,TGI,[26],> 100 µM
same,GI50,[27],0.363 µM
same,TGI,[27],60.2 µM
same,GI50,[28],0.437 µM
same,TGI,[28],12 µM
same,GI50,[29],4.94 µM
same,TGI,[29],76.9 µM
